tested on: soluble epoxide hydrolase (sEH); experiment: Fluorescent assay for soluble epoxide hydrolase (CMNPC substrate), percent inhibition at the recited concentration; type: biochemical; conditions: Inhibition Conc. 50 nM
From the text: Fluorescent Assay for Mouse and Human Soluble Epoxide Hydrolase Recombinant mouse sEH (MsEH) and human sEH (HsEH) were produced in a baculovirus expression system as previously reported. Grant et al., J. Biol. Chem., 268:17628-17633 (1993); Beetham et al., Arch. Biochem. Biophys., 305:197-201 (1993). The expressed proteins were purified from cell lysate by affinity chromatography. Wixtrom et al., Anal. Biochem., 169:71-80 (1988). Protein concentration was quantified using the Pierce BCA assay using bovine serum albumin as the calibrating standard. The preparations were at least 97% pure as judged by SDS-PAGE and scanning densitometry. They contained no detectable esterase or glutathione transferase activity which can interfere with the assay. The assay was also evaluated with similar results in crude cell lysates or homogenate of tissues. The IC50s for each inhibitor were determined according to the following procedure: […] Jones P. D. et al.; Analytical Biochemistry 2005; 343: pp. 66-75) Bis/Tris HCl 25 mM pH 7.0 containing 0.1 mg/mL of BSA (buffer […] at 0.25 mM in DMSO. Mother solution of enzyme in buffer A (Mouse sEH at 6 μg/mL and Human sEH at 5 μg/mL). Inhibitor dissolved in DMSO at the appropriate concentration. In a black 96 well plate, fill all the wells with 150 μL of buffer A. Add 2 μL of DMSO in well A2 and A3, and then add 2 μL of inhibitor solution in A1 and A4 through A12. Add 150 μL of buffer A in row A, then mix several time and transfer 150 μL to row B. Repeat this operation up to row H. The 150 μL removed from row H is discarded. Add 20 μL of buffer A in column 1 and 2, then add 20 μL of enzyme solution to column 3 to 12. Incubate the plate for 5 minutes in the plate reader at 30° C. During incubation prepare the working solution of substrate by mixing 3.68 mL of buffer A (4×0.920 mL) with 266 μL (2×133 μL) of substrate solution). At t=0, add 30 μL of working substrate solution with multi-channel pipette labeled “Briggs 303” and start the reading ([S]final: 5 μM). Read with ex: 330 nm (20 nm) and em: 465 nm (20 nm) every 30 second for 10 minutes. The velocities are used to analyze and calculate the IC50s. Tables 1-7 above provide the percent inhibition of the enzyme when tested at the concentration recited therein.

In order of rising “% inh.” value:
1. O=C(NC1CCCCC1)NC1CCN(S(=O)(=O)c2cccc(C(F)(F)F)c2)CC1 [Compound 7-44, 1-cyclohexyl-3-(1-(3-(trifluoromethyl)phenylsulfonyl)piperidin-4-yl)urea]  81%
2. O=C(NC1CCCCC1)NC1CCN(C(=O)c2ccccn2)CC1 [Compound 7-40, 1-cyclohexyl-3-(1-picolinoylpiperidin-4-yl)urea]  82%
3. CN(C)C(=O)N1CCC(NC(=O)Nc2ccc(C(F)(F)F)cc2)CC1 [Compound 7-21, N,N-dimethyl-4-(3-(4-(trifluoromethyl)phenyl)-ureido)piperidine-1-carboxamide]  86%
4. Cn1cnc(C(=O)N2CCC(NC(=O)NC34CC5CC(CC(C5)C3)C4)CC2)c1 [Compound 7-39, 1-adamantyl-3-(1-(1-methyl-1H-imidazole-4-carbonyl)piperidin-4-yl)urea]  89%
5. Cc1c(Cl)cccc1S(=O)(=O)N1CCC(NC(=O)NC23CC4CC(CC(C4)C2)C3)CC1 [Compound 7-34, 1-(1-(3-chloro-2-methylphenylsulfonyl)piperidin-4-yl)-3-adamantylurea]  91%
6. CS(=O)(=O)c1ccc(S(=O)(=O)N2CCC(NC(=O)NC34CC5CC(CC(C5)C3)C4)CC2)cc1 [Compound 7-41, 1-adamantyl-3-(1-(4-(methylsulfonyl)phenylsulfonyl)piperidin-4-yl)urea]  92%
7. O=C(NC1CCN(S(=O)(=O)c2ccc(C(=O)O)cc2)CC1)NC12CC3CC(CC(C3)C1)C2 [Compound 7-45, 4-(4-(3-adamantylureido)piperidin-1-ylsulfonyl)benzoic acid]  92%
8. CC(C)OC(=O)N1CCC(NC(=O)NC23CC4CC(CC(C4)C2)C3)CC1 [Compound 7-23, isopropyl 4-(3-(1-adamantyl)ureido)piperidine-1-carboxylate]  93%
9. O=C(NC1CCN(S(=O)(=O)Cc2ccccc2)CC1)NC12CC3CC(CC(C3)C1)C2 [Compound 7-29, 1-(1-(benzylsulfonyl)piperidin-4-yl)-3-adamantylurea]  93%
10. O=C(NC1CCN(S(=O)(=O)c2cccs2)CC1)NC12CC3CC(CC(C3)C1)C2 [Compound 7-28, 1-adamantyl-3-(1-(thiophen-2-ylsulfonyl)piperidin-4-yl)urea]  94%
11. CC(C)OC(=O)N1CCC(NC(=O)Nc2ccc(C(F)(F)F)cc2)CC1 [Compound 7-20, isopropyl 4-(3-(4-(trifluoromethyl)phenyl)ureido)piperidine-1-carboxylate]  95%
12. O=C(NC1CCN(S(=O)(=O)c2ccc(Cl)cc2)CC1)NC12CC3CC(CC(C3)C1)C2 [Compound 7-27]  95%
13. O=C(NC1CCCCC1)NC1CCN(S(=O)(=O)c2ccc(Cl)cc2)CC1 [Compound 7-42, 1-(1-(4-chlorophenylsulfonyl)piperidin-4-yl)-3-cyclohexylurea]  95%
14. O=C(NC1CCN(S(=O)(=O)c2ccc(-c3ccccc3)cc2)CC1)NC12CC3CC(CC(C3)C1)C2 [Compound 7-24, 1-(1-(biphenyl-4-ylsulfonyl)piperidin-4-yl)-3-adamantylurea]  96%
15. O=C(NC1CCN(C(=O)c2ccc(Cl)cc2)CC1)NC12CC3CC(CC(C3)C1)C2 [Compound 7-46, 1-(1-(4-chlorobenzoyl)piperidin-4-yl)-3-adamantylurea]  96%
16. CC(C)(C)C(=O)N1CCC(NC(=O)Nc2ccc(OC(F)(F)F)cc2)CC1 [Compound 7-19, 1-(1-pivaloylpiperidin-4-yl)-3-(4-(trifluoro-methoxy)phenyl)urea]  97%
17. O=C(NC1CCN(S(=O)(=O)c2ccccc2)CC1)NC12CC3CC(CC(C3)C1)C2 [Compound 7-26, 1-adamantyl-3-(1-(phenylsulfonyl)piperidin-4-yl)urea]  97%
18. CC(C)(C)c1ccc(S(=O)(=O)N2CCC(NC(=O)NC34CC5CC(CC(C5)C3)C4)CC2)cc1 [Compound 7-30, 1-(1-(4-tert-butylphenylsulfonyl)piperidin-4-yl)-3-adamantylurea]  97%
19. O=C(NC1CCN(S(=O)(=O)c2ccccc2C(F)(F)F)CC1)NC12CC3CC(CC(C3)C1)C2 [Compound 7-32, 1-adamantyl-3-(1-(2-(trifluoromethyl)phenylsulfonyl)piperidin-4-yl)urea]  97%
20. Cc1cccc(Cl)c1S(=O)(=O)N1CCC(NC(=O)NC23CC4CC(CC(C4)C2)C3)CC1 [Compound 7-35, 1-(1-(2-chloro-6-methylphenylsulfonyl)piperidin-4-yl)-3-adamantylurea]  98%
21. CC(C)OC(=O)N1CCC(NC(=O)Nc2ccc(OC(F)(F)F)cc2)CC1 [Compound 7-22, isopropyl 4-(3-(4-(trifluoromethoxy)phenyl)ureido)piperidine-1-carboxylate]  99%
22. O=C(NC1CCN(S(=O)(=O)c2ccc3ccccc3c2)CC1)NC12CC3CC(CC(C3)C1)C2 [Compound 7-25, 1-adamantyl-3-(1-(naphthalen-2-ylsulfonyl)piperidin-4-yl)urea]  99%
23. Cc1ccccc1S(=O)(=O)N1CCC(NC(=O)NC23CC4CC(CC(C4)C2)C3)CC1 [Compound 7-33, 1-adamantyl-3-(1-(o-tolylsulfonyl)piperidin-4-yl)urea]  99%
24. O=C(NC1CCN(S(=O)(=O)c2ccc(C(F)(F)F)cc2)CC1)NC12CC3CC(CC(C3)C1)C2 [Compound 7-36, 1-adamantyl-3-(1-(4-(trifluoromethyl)phenylsulfonyl)piperidin-4-yl)urea]  99%
25. O=C(NC1CCN(S(=O)(=O)c2ccc(Cl)c(Cl)c2)CC1)NC12CC3CC(CC(C3)C1)C2 [Compound 7-37]  100%
26. O=C(NC1CCN(S(=O)(=O)c2cccc(C(F)(F)F)c2)CC1)NC12CC3CC(CC(C3)C1)C2 [Compound 7-38, 1-adamantyl-3-(1-(3-(trifluoromethyl)phenylsulfonyl)piperidin-4-yl)urea]  100%
27. CC(C)(C)OC(=O)N1CCC(NC(=O)Nc2ccc(C(F)(F)F)cc2)CC1 [Compound 7-47, tert-butyl 4-(3-(4-(trifluoromethyl)phenyl)ureido)piperidine-1-carboxylate]  100%

same assay, conditions: Inhibition Conc. 200 nM

In order of falling “% inh.” value:
1. CC(C)(C)OC(=O)N1CCC(NC(=O)NC2CCCCCC2)CC1 [Compound 7-48, tert-butyl 4-(3-cycloheptylureido)piperidine-1-carboxylate]  100%
2. CC(C)S(=O)(=O)N1CCC(NC(=O)Nc2ccc(OC(F)(F)F)cc2)CC1 [Compound 7-55, 1-(1-(isopropylsulfonyl)piperidin-4-yl)-3-(4-(trifluoromethoxy)phenyl)urea]  94%
3. O=C(NC1CCN(C(=O)NC23CC4CC(CC(C4)C2)C3)CC1)NC12CC3CC(CC(C3)C1)C2 [Compound 7-56, N-adamantyl-4-(3-adamantylureido)piperidine-1-carboxamide]  86%
4. CC(C)(C)OC(=O)N1CCC(NC(=O)Nc2ccc(S(C)(=O)=O)cc2)CC1 [Compound 7-49, tert-butyl 4-(3-(4-(methylsulfonyl)phenyl)ureido)piperidine-1-carboxylate]  83%
5. CC(C)(C)OC(=O)N1CCC(NC(=O)NC2CCC2)CC1 [Compound 7-50, tert-butyl 4-(3-cyclobutylureido)piperidine-1-carboxylate]  76%

same assay, conditions: Inhibition Conc. 500 nM

In order of falling “% inh.” value:
1. CC(=O)N1CCC(NC(=O)NC2CCCCC2)CC1 [Compound 7-43, 1-(1-acetylpiperidin-4-yl)-3-cyclohexylurea]  86%
2. CC(C)(C)OC(=O)N1CCC(NC(=O)NC2CCCC2)CC1 [Compound 7-17, tert-butyl 4-(3-cyclopentylureido)-piperidine-1-carboxylate]  85%

same assay, conditions: Inhibition Conc. 2000 nM

In order of falling “% inh.” value:
1. CC(C)(C)OC(=O)N1CCC(NC(=O)Nc2ccc(C(=O)O)cc2)CC1 [Compound 7-54, 4-(3-(1-(tert-butoxycarbonyl)piperidin-4-yl)ureido)benzoic acid]  55%
2. CC(=O)N1CCC(NC(=O)Nc2ccc(N(C)C)cc2)CC1 [Compound 7-52, 1-(1-acetylpiperidin-4-yl)-3-(4-(dimethylamino)phenyl)urea]  44%
3. CC(=O)N1CCC(NC(=O)Nc2ccc(C(=O)O)cc2)CC1 [Compound 7-53, 4-(3-(1-acetylpiperidin-4-yl)ureido)benzoic acid]  17%

same assay, conditions: Inhibition Conc. 5000 nM

With `CC(=O)N1CCC(NC(=O)NC2CCCC2)CC1` [Compound 7-18, 1-(1-acetylpiperidin-4-yl)-3-cyclopentylurea] the “% inh.” value was 74%.

From patent US20080227780A1, “SOLUBLE EPOXIDE HYDROLASE INHIBITORS” (Arete Therapeutics, Inc., priority 2007, published 2008)
